In patent US10266520B2, “Bisamidinium-based inhibitors for the treatment of myotonic dystrophy” (The Board of Trustees of the University of Illinois, priority 2014, dated 2019):

Tests used:
[1] = tested on: insulin receptor (IR) pre-mRNA splicing; experiment: Correction of IR alternative splicing in DM1 cell model (RT-PCR); type: cell-based; settings: 1 μM
Excerpt: FIG. 3A-B. (a) Schematic representation of IR alternative splicing. (b) Correction of IR splicing by compounds 2a and 1a as determined by conventional RT-PCR. Error bars represent standard deviation for three independent experiments, two-tail t-test *P<0.01,**P<0.005.
Because 2a is capable of inhibiting MBNL1-rCUG^exp both in vitro and in cells, we evaluated its ability to correct the splicing defects in the DM1 cell model. We chose to examine the IR mRNA mis-splicing, because among several pre-mRNA splicing defects associated with the depletion of MBNL1 protein, the reversal of IR splicing requires the largest amount of free MBNL1 and is therefore the more challenging defect. During the alternative splicing of IR, two products were generated: isoforms IR-A and IR-B with the exclusion and inclusion of exon 11, respectively (FIG. 3a). In normal skeletal muscle, IR-B is the dominant isoform, whereas IR-A is more abundant in DM1 skeletal muscle. […] In particular, compound 2a at 1 μM increased the abundance of isoform B to 49% (ca. 80% correction).
ITC, EMSA, confocal microscopy, IR splicing, and the reversal of rough-eye phenotype assays were conducted as previously described (Wong et al., J. Am. Chem. Soc. 2014, 136, 6355-6361). […]

[2] = target: MBNL1-(CUG)12 complex; settings: earlier work; read-out: KI, inhibition of MBNL1-(CUG)12 complex; cited from earlier work
[3] = tested on: MBNL1-rCUG^exp nuclear foci; settings: cited from earlier work
[4] = tested on: insulin receptor (IR) pre-mRNA splicing; settings: DM1 model cells; cited from earlier work
[5] = earlier work; cited from earlier work

| Structure (SMILES) | correction of IR splicing ([1]; DM1 cell model) | abundance of IR isoform B ([1]; DM1 cell model (normal ca. 53%, DM1 34%)) [%] | Ki [2] [µM] | reduction of foci to (previous study) ([3]; 100 μM, previous study) [%] | MBNL1-rCUG^exp nuclear foci in DM1 model cells (earlier work) ([3]; earlier work) | mis-splicing of cTNT and IR pre-mRNA (earlier work) [4] | water solubility [5] |
| --- | --- | --- | --- | --- | --- | --- | --- |
| N=C(NCCCCNc1nc(N)nc(N)n1)c1ccc(C(=N)NCCCCNc2nc(N)nc(NCCCn3cc(CNc4nc(N)nc(NCCCCNC(=N)c5ccc(C(=N)NCCCCNc6nc(N)nc(N)n6)cc5)n4)nn3)n2)cc1 [Compound 2a] | ca. 80% | 49 | – | – | – | – | – |
| N=C(NCCCCNc1nc(N)nc(N)n1)c1ccc(C(=N)NCCCCNc2nc(N)nc(N)n2)cc1 [Compound 1a] | – | – | 8 | 32 | dissolved foci | partially rescuing the mis-splicing | excellent water solubility |
